From US11613533B2, “Compounds useful for inhibiting RET kinase” (Eli Lilly and Company, priority 2020, dated 2023)
pEC50, pIC50: −log10 of the molar value.

How the values were obtained:
[1] = target: T1, KIF5B-RET mutant form V804M in HEK293 cells (Homo sapiens, UniProt P07949, V804M); experiment: RET cell assay (In-Cell Western, phospho-RET Y1062), V804M; assay type: cell-based; details: HEK293, doxycycline-induced KIF5B-RET V804M, 1 hr compound treatment; read-out: EC50, inhibition of intracellular autophosphorylation of RET at tyrosine 1062, V804M cells
T1 construct: expressed in transfected cells; host or cells: HEK293; the other entry of the earlier key: KIF5B (P33176, Kinesin-1 heavy chain)
T1 sequence (P07949 713-1063 V804M limits assumed): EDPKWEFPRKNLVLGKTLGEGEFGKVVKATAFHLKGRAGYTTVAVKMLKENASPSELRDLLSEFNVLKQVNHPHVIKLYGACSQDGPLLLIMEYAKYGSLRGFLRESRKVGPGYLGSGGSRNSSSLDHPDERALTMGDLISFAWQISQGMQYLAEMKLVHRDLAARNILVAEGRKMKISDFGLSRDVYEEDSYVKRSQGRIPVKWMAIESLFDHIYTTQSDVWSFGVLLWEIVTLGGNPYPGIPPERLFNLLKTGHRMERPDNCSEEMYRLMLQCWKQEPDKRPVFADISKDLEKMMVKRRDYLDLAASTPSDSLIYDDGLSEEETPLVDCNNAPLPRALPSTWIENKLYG
Description: Compounds of formulas (I), (II), and (III) are screened for their ability to inhibit the intracellular autophosphorylation of RET at tyrosine 1062 as detected by In-Cell Western. HEK293 cells containing a doxycycline-inducible plasmid for inducible expression of KIF5B-RET WT and RET mutant forms V804M and G810S are seeded at 25,000 cells/well into black poly-D-lysine pre-coated 384-well plates (Corning, Catalog No. 356697). Expression of KIF5B-RET is induced with doxycycline at 1 μg/mL and cells are incubated at 37° C. overnight. Compounds are prepared in a threefold serial dilution in DMSO before further diluting 1:100 in media prior to the addition to the cells (0.1% final DMSO concentration). Compound treatment is performed for 1 hr at 37° C. followed by fixation of cells with 4% formaldehyde for 20 min at RT and cell permeabilisation with ice-cold MeOH for 10 min at RT. Cells are incubated with Intercept® blocking buffer (Li—COR, Catalogue No. 927-70010) for 1 hr at RT. Incubation with primary antibodies against human phospho-RET (Y1062) (R&D, Catalogue No. AF5009, 1/250 dilution) and human glyceraldehyde-3-phosphate dehydrogenase (clone 6C5, Merck, Catalog No. MAB374, 1/1000 dilution) are performed overnight at 4° C. Incubation with secondary antibodies IRDye® 800CW goat anti-rabbit IgG (Li—COR, Catalogue No. 926-32211, 1/1000 dilution) and IRDye® 680CW goat anti-mouse IgG (Li—COR, Catalogue No. 926-68070, 1/1000 dilution) are performed for 1 hr at RT. All antibody dilutions are done in Intercept® blocking buffer containing 0.05% Tween20. After washing cells with PBS-T (Cell Signaling technology, Catalogue No. 9809), the images are acquired on a Li—COR Odyssey LCx at 700 and 800 nm. Percent of DMSO control is calculated with 100% signal referring to control conditions containing no compound (0.4% DMSO only) and 0% signal represented by conditions containing control compound. The % of DMSO control values are fit to a 4 parameter logistic curve, and the determined EC50 value is defined as the estimated concentration of inhibitor at the inflexion point of the fitted curve.

[2] = target: T2, wildtype RET kinase (N-terminal GST tagged recombinant human RET cytoplasmic domain, aa 658-end) (Homo sapiens, UniProt P07949); experiment: RET enzyme assay (HTRF KinEASE TK), wildtype; assay type: biochemical; details: 1 mM ATP, 60 min incubation at 22° C.
T2 construct: human RET cytoplasmic domain (aa 658-end); GST (N); purchased Eurofins 14-570M
T2 sequence (P07949 658-1114 limits assumed): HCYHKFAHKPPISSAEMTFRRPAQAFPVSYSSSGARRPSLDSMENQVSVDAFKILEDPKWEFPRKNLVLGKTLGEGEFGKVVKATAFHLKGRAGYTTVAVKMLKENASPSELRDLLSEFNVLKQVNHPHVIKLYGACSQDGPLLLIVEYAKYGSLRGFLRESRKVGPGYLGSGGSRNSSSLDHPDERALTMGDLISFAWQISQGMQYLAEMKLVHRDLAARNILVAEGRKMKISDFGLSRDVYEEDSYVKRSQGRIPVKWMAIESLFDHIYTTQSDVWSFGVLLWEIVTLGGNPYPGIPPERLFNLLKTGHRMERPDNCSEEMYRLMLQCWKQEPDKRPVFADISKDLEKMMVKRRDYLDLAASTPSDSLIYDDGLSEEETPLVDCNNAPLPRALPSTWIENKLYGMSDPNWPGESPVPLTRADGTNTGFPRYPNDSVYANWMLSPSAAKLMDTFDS
Description: Assay A: RET Enzyme Assay
Compounds of formulas I, II, or III are screened for their ability to inhibit wildtype, V804M, and G810S mutant RET kinase using CisBio's HTRF® KinEASE™TK assay technology. N-terminal GST tagged recombinant human RET cytoplasmic domain (aa 658-end) from Eurofins ([…]; Catalog No. 14-570M) or N-terminal GST tagged recombinant human V804M mutant RET cytoplasmic domain (aa 658-end) from Millipore (1.25 nM enzyme; Catalog No. 14-760) or N-Terminal GST-tagged recombinant human G810S (aa-658-end) (1.25 nM Enzyme; produced in insect cells) is incubated with 62.5 nM TK-substrate biotin (CisBio, part of Catalog No. 62TK0PEC) and 1 mM ATP along with test compound (0.4% final DMSO in the assay) in a 1× Cisbio enzymatic buffer consisting of […], 5 mM MgCl2, 0.04% BSA and 0.05% Tween20 in a volume of 10 μL. Compounds are typically prepared in a threefold serial dilution in DMSO and added to the assay to give the appropriate final concentration. After a 40-60 min (40 min for V804M, 60 min for WT and G810S) incubation at 22° C., the reaction is quenched by adding quench solution (10 μL) containing 7.8 nM Streptavidine-XL665 and 0.5×TK-ab-Cryptate in HTRF detection buffer (all from CisBio, part of Cat. No. 62TK0PEC). After a 60-80 min incubation (60 minutes for WT, 80 minutes for V804M and G810S) at 22° C., the extent of reaction is determined using a PHERastar plate reader via HTRF detection at excitation/emission 337/665 nm. Percent of inhibition is calculated with 0% inhibition referring to control conditions containing no compound (0.4% DMSO only) and 100% inhibition represented by conditions containing no enzyme. The % inhibition values are fit to a 4 parameter logistic curve, and the determined IC50 value is defined as the estimated concentration of inhibitor at the inflexion point of the fitted curve.

pEC50 [1] | pIC50 [2] | SMILES
> 7.00 | > 7.00 | CCC(C)(C)c1cc(NC(=O)C(C)c2ccc(-c3nn(C(C)C)c(N)c3C(N)=O)cc2)on1 (single isomer, unassigned; isomer 1) [Example 15, 5-Amino-1-isopropyl-3-[4-(1-[[3-(2-methylbutan-2-yl)-1,2-oxazol-5-yl]carbamoyl]ethyl)phenyl]pyrazole-4-carboxamide, Isomer 1]
> 7.00 | > 7.00 | CC(C(=O)Nc1cc(C(C)(C)C(F)(F)F)no1)c1ccc(-c2nn(C(C)C)c(N)c2C(N)=O)cc1 (single isomer, unassigned; isomer 1) [Example 17, 5-Amino-1-isopropyl-3-[4-(1-[[3-(1,1,1-trifluoro-2-methylpropan-2-yl)-1,2-oxazol-5-yl]carbamoyl]ethyl)phenyl]pyrazole-4-carboxamide, Isomer 1]
> 7.00 | > 7.00 | CC(C(=O)Nc1cc(-c2ccc(Cl)cc2Cl)no1)c1ccc(-c2nn(C(C)C)c(N)c2C(N)=O)cn1 (single isomer, unassigned; isomer 2) [Example 94, 5-Amino-1-isopropyl-3-[6-[2-[[3-(2,4-dichlorophenyl)isoxazol-5-yl]amino]-1-methyl-2-oxo-ethyl]-3-pyridyl]pyrazole-4-carboxamide, Isomer 2]
> 7.00 | > 7.00 | CC(C(=O)Nc1cc(C2(C)CC2)no1)c1ccc(-c2nn(C(C)C)c(N)c2C(N)=O)cc1 (single isomer, unassigned; isomer 1) [Example 35, 5-Amino-1-isopropyl-3-[4-(1-[[3-(1-methylcyclopropyl)-1,2-oxazol-5-yl]carbamoyl]ethyl)phenyl]pyrazole-4-carboxamide, Isomer 1]
> 7.00 | > 7.00 | CCC(C)(C)c1cc(NC(=O)C(C)c2ccc(-c3nn(C(C)C)c(N)c3C(N)=O)cc2)no1 (single isomer, unassigned; isomer 2) [Example 52, 5-Amino-1-isopropyl-3-[4-(1-[[5-(2-methylbutan-2-yl)-1,2-oxazol-3-yl]carbamoyl]ethyl)phenyl]pyrazole-4-carboxamide, Isomer 2]
> 7.00 | > 7.00 | CCC(C)(C)c1cc(NC(=O)C(C)c2ccc(-c3nn(C(C)C)c(N)c3C(N)=O)nc2)no1 (single isomer, unassigned; isomer 2) [Example 66, 5-Amino-1-isopropyl-3-[5-(1-[[5-(2-methylbutan-2-yl)-1,2-oxazol-3-yl]carbamoyl]ethyl)pyridin-2-yl]pyrazole-4-carboxamide, Isomer 2]
> 7.00 | > 7.00 | CC(C(=O)Nc1cc(C2CC(C)(C)C2)no1)c1ccc(-c2nn(C(C)C)c(N)c2C(N)=O)cc1 (single isomer, unassigned; isomer 1) [Example 98, 5-Amino-3-[4-[2-[[3-(3,3-dimethylcyclobutyl)isoxazol-5-yl]amino]-1-methyl-2-oxo-ethyl]phenyl]-1-isopropyl-pyrazole-4-carboxamide, Isomer 1]
> 7.00 | > 7.00 | CC(C(=O)Nc1cc(-c2ccc(Cl)cc2Cl)no1)c1ccc(-c2nn(C(C)C)c(N)c2C(N)=O)cc1 (single isomer, unassigned; isomer 1) [Example 45, 5-Amino-3-[4-(1-[[3-(2,4-dichlorophenyl)-1,2-oxazol-5-yl]carbamoyl]ethyl)phenyl]-1-isopropylpyrazole-4-carboxamide, Isomer 1]
